Each structure is given as a SMILES string.

Test [1] deals with FKBP12 (Homo sapiens, UniProt P62942). Description: Ki test procedure: inhibition of peptidyl-prolyl isomerase (rotamase) activity of FKBP12, chymotrypsin-coupled assay. The following applies: apparent Ki. The class given is biochemical. The source says:
The inhibition of the prolyl peptidyl cis-trans isomerase activity of FKBP may be measured as an indicator of this affinity.
The binding to FBKP12 and inhibition of the peptidyl-prolyl isomerase (rotamase) activity of the compounds used in the inventive methods and pharmaceutical compositions can be evaluated by known methods described in the literature (Harding et al., Nature, 1989, 341:758-760; Holt et al. J. Am. Chem. Soc., 115:9923-9938).
The cis-trans isomerization of an alanine-proline bond in a model substrate, N-succinyl-Ala-Ala-Pro-Phe-p-nitroanilide, is monitored spectrophotometrically in a chymotrypsin-coupled assay, which releases para-nitroanilide from the trans form of the substrate. The inhibition of this reaction caused by the addition of different concentrations of inhibitor is determined, and the data is analyzed as a change in first-order rate constant as a function of inhibitor concentration to yield the apparent Ki values.
In a plastic cuvette are added […] of ice cold assay buffer (25 mM HEPES, pH 7.8, 100 mM NaCl), 10 mL of FKBP (2.5 mM in 10 mM Tris-Cl pH 7.5, 100 mM NaCl, 1 mM dithiothreitol), […] of chymotrypsin (50 mg/ml in 1 mM HCl) and […] of test compound at various concentrations in dimethyl sulfoxide. The reaction is initiated by the addition of 5 mL of substrate (succinyl-Ala-Phe-Pro-Phe-para-nitroanilide, 5 mg/mL in 2.35 mM LiCl in trifluoroethanol).
The absorbance at 390 nm versus time is monitored for 90 seconds using a spectrophotometer and the rate constants are determined from the absorbance versus time data files.

Test [2] concerns outer hair cells (OHC). Description: Intramiddle ear neomycin-induced ototoxicity, compound given into the middle ear, outer hair cell loss. The settings on record: 10 ng in the middle ear. Type of test: in vivo, guinea pig. The method, then:
Twenty guinea pigs used in this study were divided into two groups: 10 animals received 10 ng and 10 received 1 ng of the sensorineurotrophic compound.
Sensorineurotrophic compound stock A: A stock solution of sensorineurotrophic compound at 1 mg/10 ml in 100% ethanol was prepared and then diluted and mixed in Intralipid at 10 ng/100 μl.
Sensorineurotrophic compound stock B: A stock solution of sensorineurotrophic compound at 1 mg/100 ml in 100% ethanol was prepared and then diluted and mixed in 20% Intralipid at 1 ng/100 μl.
Animals were anesthetized with an intramuscular injection of a mixture of ketamine (80 mg/kg) and xylazine (4 mg/kg). Through a post-auricular incision, the right bulla was identified. A hole was drilled to open the middle ear cavity (care was taken not to injure the tympanic annulus or ossicles). A piece of gelfoam (˜2 mm^3) soaked with the sensorineurotrophic compound solution was inserted into the round window niche. The remaining sensorineurotrophic compound solution (˜100 μl) then was injected into the middle ear cavity. In the 10 ng dose group, 100 μl of sensorineurotrophic compound stock A was administered; and in the 1 ng dose group, 100 μl of sensorineurotrophic compound stock B was administered to the middle ear cavity. The hole was covered with a piece of clear plastic sheet which was stuck on the skull with a superglue. The incision was closed with clips. The same procedure was performed at the left bulla, but 100 μl of vehicle solution instead of sensorineurotrophic compound solution was administered. The animals were maintained in the prone position until they woke up to ensure filling of the middle ear cavity.
After two days, the animals received a second middle ear administration of sensorineurotrophic compound or vehicle together with neomycin. Solutions were prepared for the two groups of animals as follows:
Solution A: Neomycin was dissolved in sensorineurotrophic compound stock A described above. The final concentration of neomycin was 5 mg and the sensorineurotrophic compound concentration was 10 ng in a 100 μl vehicle solution.
Solution B: Neomycin was dissolved in sensorineurotrophic compound stock B described above. The final concentration of neomycin was 5 mg and the concentration of sensorineurotrophic compound was 1 ng in a 100 μl vehicle solution.
Solution C: Neomycin was dissolved in 20% Intralipid to a final concentration of 5 mg in 100 μl vehicle.
The plastic cover sheet on the bulla window was removed and the middle ear cavity was exposed. The old sensorineurotrophic compound or vehicle was sucked off and the old gelfoam was removed from the round window niche. A piece of gelfoam with fresh stock solution containing sensorineurotrophic compound and neomycin was administered to the round window niche, and the remaining solution (˜100 μl, solution A for the 10 ng dose group and solution B for the 1 ng dose group, respectively) was injected into the middle ear cavity of the right bulla.
Solution C (100 μl) was administered to the left ear for both groups in the same way.
Fourteen days after the second surgery, animals were perfused transcardially with a PBS flush followed by a fixative of 4% paraformaldehyde in 0.1M PBS. Immediately following the perfusion, the temporal bone was removed from the head. The bulla was opened and the cochlea was exposed. The apex was opened and the membrane of the round and oval windows was punched. The fixative solution was gently infused into the perilymphatic space through the apex hole and then allowed to flow out from windows. Then the cochleae were post-fixed in the same fixative solution for at least one day.
To identify and count hair cells in the organ of Corti, a direct immunostaining method was used to label the actin present naturally in the stereocilia bundles of the hair cells. The cochlea was dissected and the perilymphatic space was fully exposed. […]

In test [3] the test system is Preyer's reflex. As to the kind of experiment: Cisplatin-induced ototoxicity, compound given systemically, Preyer's reflex monitoring. The following applies: 30 mg/kg s.c. daily, cisplatin 4 mg/kg i.p. x4; 10 days after the 4th injection; vehicle group more than 80%. Type of test: in vivo, guinea pig. Here is the method:
Twenty male pigmented guinea pigs were divided into two groups (10 in each). One group was treated with Compound XXV while the other with vehicle—2 days prior to the first cisplatin injection. The test compound or vehicle was delivered by daily sub-cutaneous injection. On the day of injection, 100 mg of Compound XXV was dissolved in 1 ml of ethanol, then added to 20% Intralipid solution to a final volume of 3 ml and final Compound XXV concentration of 10 mg/0.3 ml. Each animal was subcutaneously injected with 30 mg/kg of Compound XXV solution Two days after the beginning of test compound injections (d2), cisplatin intraperitoneal injection was given to all animals at 4 mg/kg. After 3 days, a second cisplatin injection was given to all animals (d5). After another 3 days, a third injection (d8) and after 3 more days the fourth and last injection of cisplatin was given (d11). Test compound injections continued daily until day 21 (10 days after the last cisplatin injection).
Preyers' reflex is a rough indication of hearing function in rodents. […] The animals in this experiment were monitored daily for their Preyer's reflex. […]
Determination of hair cell numbers was determined in the same manner as in Example 4.

The mark [4] stands for this setting: rotamase inhibition, Table XLI, Formulas I to XIV.

Sequence of FKBP12 (P62942 whole entry, species assumed): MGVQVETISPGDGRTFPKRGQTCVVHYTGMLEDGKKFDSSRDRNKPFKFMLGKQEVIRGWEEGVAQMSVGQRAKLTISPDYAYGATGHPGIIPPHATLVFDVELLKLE

Consider `O=C(C(=O)N1CCCCC1C(=O)SCCc1ccccc1)c1ccccc1` (stereo not shown) [Compound 14], for which the Ki in test [1] (setting [4]) is 313 nM.
The same measure, in the same setting: the value for `O=C(C(=O)N1CCC[C@H]1C(=O)SCCc1ccccc1)C1CCCC1` [Compound 28, 2-Phenyl-1-ethyl (2S)-1-(1-cyclopentyl-1,2-dioxoethyl)-2-pyrrolidinecarbothioate] was 108 nM.
On the same count and under the same terms, the value for `CCC(C)(C)C(=O)C(=O)N1CSC[C@@H]1C(=O)OCCCc1ccccc1` [Compound 80, 3-phenyl-1-propyl(2S)-1-(3,3-dimethyl-1,2-dioxopentyl)-2-(4-thiazolidine)carboxylate] was 215 nM.
For the molecule `CCC(C)(C)NC(=O)N1CCCC1C(=O)SCCCc1ccc(OC)cc1` (stereo not shown) [Compound 103], the Ki in test [1] (FKBP12 rotamase inhibition) fell in the range of 51 to 200 nM.
For `O=C(SCCCc1cccnc1)C1CCCN1C(=S)NC12CC3CC(CC(C3)C1)C2` (stereo not shown) [Compound 108], the Ki in test [1] (FKBP12 rotamase inhibition) was 1 to 50 nM.
Still for that read-out and setting: with `O=C(SC(CCc1ccccc1)CCc1ccccc1)C1CCCCN1C(=O)Nc1ccccc1` (stereo not shown) [Compound 113] the figure was 1 to 50 nM.
On to `CCC(C)(C)C(=O)C(=O)N1CCC[C@H]1C(=O)SCCC(c1ccccc1)c1ccccc1` [Compound XVI], for which, in test [2] (5 mg neomycin, group mean), the “difference in the number of OHCs lost, vehicle vs compound (FIG. 8)” value is reported as “over 50%”. For the same molecule, the “loss of hair cells in the second turn (turn 3), in words” value in test [2] (neomycin (FIG. 9)) was “completely prevent the loss”. Besides, the “loss of hair cells in the basal turn (turn 4)” value in test [2] (neomycin, vehicle almost 100% (FIG. 9)) is listed as “around 30%”.
For the molecule `CCC(C)(C)C(=O)C(=O)N1CCCCC1C(=O)SCCC(c1ccccc1)c1ccccc1` (stereo not shown) [Compound XXV], the “animals that lost Preyer's reflex” value in test [3] is “about 20 % of the animals”.

The values are drawn from US20040186098A1 (Amgen Inc., priority 1997, published 2004).
